Results from PubChem BioAssay AID248 (DTP/NCI, 2004).
Where “and” joins values, the source holds several entries; their conditions need not be identical. Equal values may be shown once. Toxic doses and inconclusive results are not listed. Cut-off read from the data, not from the text of the source: active = T/C of 150% or more; inactive = T/C below 125%.

Tested on: L1210 leukemia ip in BDF1 mice, survival T/C
Assay: NCI In Vivo Anticancer Drug Screen. Data for tumor model L1210 Leukemia (intraperitoneal) in B6D2F1 (BDF1) mice
Settings: endpoint: mean survival time, higher = longer survival
Method in brief: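 Survival endpoint. Drug-treated group vs vehicle group, expressed as T divided by C. Tumor passaged by transplantation.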

[1] = dose: 50.0 mg/kg/injection, schedule: Q01DX001 (ip), vehicle: saline
[2] = dose: 100.0 mg/kg/injection, schedule: Q01DX001 (ip), vehicle: saline
[3] = dose: 200.0 mg/kg/injection, schedule: Q01DX001 (ip), vehicle: saline
[4] = dose: 400.0 mg/kg/injection, schedule: Q01DX001 (ip), vehicle: saline
[5] = dose: 200.0 mg/kg/injection, schedule: Q01DX009 (ip), vehicle: saline
[6] = dose: 100.0 mg/kg/injection, schedule: Q04DX003 (ip), vehicle: saline with Tween-80
[7] = dose: 100.0 mg/kg/injection, schedule: Q04DX003 (ip), vehicle: saline
[8] = dose: 400.0 mg/kg/injection, schedule: Q04DX003 (ip), vehicle: saline

Measured: T/C

O=Cc1c2ccccc2cc2ccccc12
inactive: dose: 9.5 mg/kg/injection, schedule: Q01DX015 (ip), vehicle: saline 96 % of control | dose: 9.5 mg/kg/injection, schedule: Q## X015 (ip), vehicle: saline 94 % of control | dose: 9.7 mg/kg/injection, schedule: Q01DX015 (ip), vehicle: other 97 % of control | dose: 16.2 mg/kg/injection, schedule: Q01DX015 (ip), vehicle: other 107 % of control | dose: 16.2 mg/kg/injection, schedule: Q## X015 (ip), vehicle: saline 94 % of control | dose: 27.0 mg/kg/injection, schedule: Q01DX015 (ip), vehicle: other 104 % of control | dose: 27.0 mg/kg/injection, schedule: Q## X015 (ip), vehicle: saline 96 % of control | dose: 45.0 mg/kg/injection, schedule: Q01DX015 (ip), vehicle: other 91 % of control | dose: 45.0 mg/kg/injection, schedule: Q01DX015 (ip), vehicle: saline 96 % of control and 109 % of control | dose: 45.0 mg/kg/injection, schedule: Q## X015 (ip), vehicle: saline 94 % of control | [1] 95 % of control and 100 % of control and 103 % of control | [2] 97 % of control and 100 % of control and 103 % of control | [3] 101 % of control | [4] 97 % of control and 101 % of control and 114 % of control | dose: 800.0 mg/kg/injection, schedule: Q01DX001 (ip), vehicle: saline 100 % of control

O=[As](O)(CC(O)c1ccccc1)c1ccccc1 (stereo not given)
inactive: dose: 6.25 mg/kg/injection, schedule: Q01DX001 (ip), vehicle: saline with Tween-80 97 % of control | dose: 12.5 mg/kg/injection, schedule: Q01DX001 (ip), vehicle: saline with Tween-80 103 % of control

C=Cc1c2ccccc2cc2c1ccc1ccccc12
inactive: dose: 100.0 mg/kg/injection, schedule: Q04DX002 (ip), vehicle: other 102 % of control | dose: 200.0 mg/kg/injection, schedule: Q04DX002 (ip), vehicle: other 106 % of control | dose: 400.0 mg/kg/injection, schedule: Q04DX002 (ip), vehicle: other 109 % of control

COc1ccc([N+](=O)[O-])cc1NC(=O)Nc1ccc(N(C)C(C)=O)cc1
inactive: dose: 50.0 mg/kg/injection, schedule: Q01DX009 (ip), vehicle: Klucel (hydroxypropylcellulose) (HPC) 105 % of control | dose: 100.0 mg/kg/injection, schedule: Q01DX009 (ip), vehicle: Klucel (hydroxypropylcellulose) (HPC) 111 % of control | dose: 200.0 mg/kg/injection, schedule: Q01DX009 (ip), vehicle: Klucel (hydroxypropylcellulose) (HPC) 101 % of control

CCOC(=O)NCC(CCN1CCCCC1)(c1cccc2ccccc12)C(C)C (stereo not given)
inactive: dose: 100.0 mg/kg/injection, schedule: Q04DX003 (ip), vehicle: Klucel (hydroxypropylcellulose) (HPC) 100 % of control | dose: 200.0 mg/kg/injection, schedule: Q04DX003 (ip), vehicle: Klucel (hydroxypropylcellulose) (HPC) 88 % of control

CCCCN(C)N=Nc1ccccc1C(=O)NN
inactive: dose: 100.0 mg/kg/injection, schedule: Q01DX001 (ip), vehicle: carboxymethylcellulose (CMC) 96 % of control | dose: 200.0 mg/kg/injection, schedule: Q01DX001 (ip), vehicle: carboxymethylcellulose (CMC) 107 % of control | dose: 400.0 mg/kg/injection, schedule: Q01DX001 (ip), vehicle: carboxymethylcellulose (CMC) 113 % of control

CCOCCCSP(SCCCOCC)SCCCOCC
inactive: dose: 100.0 mg/kg/injection, schedule: Q01DX009 (ip), vehicle: saline 101 % of control | [5] 102 % of control | dose: 400.0 mg/kg/injection, schedule: Q01DX009 (ip), vehicle: saline 104 % of control

Cc1ccc(NC(=O)OCCN(CCOC(=O)Nc2ccc(C)cc2)c2cccc(C)c2)cc1
inactive: [2] 94 % of control | [3] 90 % of control | [4] 94 % of control

NC(N)=N/N=C/Cc1ccccc1
inactive: dose: 62.5 mg/kg/injection, schedule: Q01DX Z (ip), vehicle: saline 94 % of control

CC1(C2CCN(Cc3ccccc3)CC2)OCCO1
inactive: dose: 37.5 mg/kg/injection, schedule: Q04DX003 (ip), vehicle: saline 100 % of control | dose: 75.0 mg/kg/injection, schedule: Q04DX003 (ip), vehicle: saline 100 % of control | dose: 150.0 mg/kg/injection, schedule: Q04DX003 (ip), vehicle: saline 101 % of control

O=C(O)CNC(=O)c1ccc([N+](=O)[O-])cc1
inactive: dose: 100.0 mg/kg/injection, schedule: Q01DX009 (ip), vehicle: saline with Tween-80 92 % of control | [6] 103 % of control | dose: 200.0 mg/kg/injection, schedule: Q01DX009 (ip), vehicle: saline with Tween-80 92 % of control | dose: 200.0 mg/kg/injection, schedule: Q04DX003 (ip), vehicle: saline with Tween-80 98 % of control | dose: 400.0 mg/kg/injection, schedule: Q01DX009 (ip), vehicle: saline with Tween-80 92 % of control | dose: 400.0 mg/kg/injection, schedule: Q04DX003 (ip), vehicle: saline with Tween-80 98 % of control

C[N+](C)(C)c1ccc(NC(=O)c2ccc(C(=O)Nc3ccc([N+](C)(C)C)cc3)cc2)cc1
inactive: dose: 0.5 mg/kg/injection, schedule: Q01DX Z (ip), vehicle: saline 93 % of control | dose: 1.0 mg/kg/injection, schedule: Q01DX Z (ip), vehicle: saline 102 % of control | dose: 2.0 mg/kg/injection, schedule: Q01DX Z (ip), vehicle: saline 97 % of control

Oc1cncc2ccccc12
inactive: [7] 94 % of control | [8] 90 % of control

O=C1CC2CC(=O)CC2C1 (stereo not given)
inactive: dose: 100.0 mg/kg/injection, schedule: Q01DX001 (ip), vehicle: Klucel (hydroxypropylcellulose) (HPC) 104 % of control | [7] 105 % of control | dose: 200.0 mg/kg/injection, schedule: Q01DX001 (ip), vehicle: Klucel (hydroxypropylcellulose) (HPC) 97 % of control | [5] 90 % of control | dose: 200.0 mg/kg/injection, schedule: Q04DX003 (ip), vehicle: saline 105 % of control | dose: 400.0 mg/kg/injection, schedule: Q01DX001 (ip), vehicle: Klucel (hydroxypropylcellulose) (HPC) 98 % of control | [8] 94 % of control

c1ccc(-c2oc3cc4c(cc3c2-c2ccc(OCCN3CCCC3)cc2)CCC4)cc1
inactive: [6] 90 % of control

S=C(NCCN1CCOCC1)Nc1ccccc1
inactive: dose: 50.0 mg/kg/injection, schedule: Q01DX001 (ip), vehicle: other 105 % of control | dose: 100.0 mg/kg/injection, schedule: Q01DX001 (ip), vehicle: other 94 % of control | dose: 200.0 mg/kg/injection, schedule: Q01DX001 (ip), vehicle: other 94 % of control | dose: 400.0 mg/kg/injection, schedule: Q01DX001 (ip), vehicle: other 92 % of control

CCCCCCCCCCCCSC1=CC(=O)C=CC1=O
inactive: dose: 5.0 mg/kg/injection, schedule: Q01DX001 (ip), vehicle: saline 101 % of control | dose: 10.0 mg/kg/injection, schedule: Q01DX001 (ip), vehicle: saline 108 % of control | dose: 20.0 mg/kg/injection, schedule: Q01DX001 (ip), vehicle: saline 97 % of control | dose: 40.0 mg/kg/injection, schedule: Q01DX001 (ip), vehicle: saline 112 % of control | dose: 80.0 mg/kg/injection, schedule: Q01DX001 (ip), vehicle: saline 112 % of control

Nc1ccnc(C(F)(F)F)n1
inactive: dose: 50.0 mg/kg/injection, schedule: Q01DX Z (ip), vehicle: methylcellulose (MC) 93 % of control | dose: 100.0 mg/kg/injection, schedule: Q01DX Z (ip), vehicle: methylcellulose (MC) 90 % of control

CCCCCCCCCCCCCCCCCCNC(=O)Nc1ccc(C)cc1
inactive: dose: 100.0 mg/kg/injection, schedule: Q01DX009 (sc), vehicle: olive oil, sesame oil, peanut oil 112 % of control | dose: 100.0 mg/kg/injection, schedule: Q04DX003 (sc), vehicle: olive oil, sesame oil, peanut oil 114 % of control | dose: 200.0 mg/kg/injection, schedule: Q01DX009 (sc), vehicle: olive oil, sesame oil, peanut oil 106 % of control | dose: 200.0 mg/kg/injection, schedule: Q04DX003 (sc), vehicle: olive oil, sesame oil, peanut oil 104 % of control | dose: 400.0 mg/kg/injection, schedule: Q01DX009 (sc), vehicle: olive oil, sesame oil, peanut oil 106 % of control | dose: 400.0 mg/kg/injection, schedule: Q04DX003 (sc), vehicle: olive oil, sesame oil, peanut oil 98 % of control

CC1CC2C3CC(F)C4=CC(=O)C=CC4(C)C3(F)C(O)CC2(C)C1(O)C(=O)COC(=O)C(C)(C)C (stereo not given)
inactive: dose: 100.0 mg/kg/injection, schedule: Q01DX001 (ip), vehicle: steriod suspending solution 106 % of control | dose: 200.0 mg/kg/injection, schedule: Q01DX001 (ip), vehicle: steriod suspending solution 95 % of control | dose: 400.0 mg/kg/injection, schedule: Q01DX001 (ip), vehicle: steriod suspending solution 95 % of control

C/C=N\O
inactive: dose: 25.0 mg/kg/injection, schedule: Q01DX001 (ip), vehicle: saline 112 % of control | [1] 102 % of control | [2] 102 % of control
